≈ marks a conversion by molar mass, not a printed value.
Tests used:
Botrtyis cinerea (Bc) = test: In vitro pathogen growth inhibition assay, Bc; type: cell-based; settings: 48 h, ≥90% growth inhibition; 48 hours; vs 2% DMSO control; read-out: Compound Concentration (ppm) sufficient for ≥90% inhibition of Bc
Method in brief: (§1)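 Value reported is the compound concentration reaching ≥90% growth inhibition, from OD readings at 24 and 48 h after blank subtraction, confirmed visually. Inoculum was spores diluted in 17% V8 medium, except Rs, using 1.5 mm mycelial plugs in ¼ PDB; actual compound concentration corrected via OD600.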

[1] = test system: Collectotrichum graminicola (Cg); test: In vitro pathogen growth inhibition assay, Cg; type: cell-based; settings: 48 h, ≥90% growth inhibition; 48 hours; vs 2% DMSO control; read-out: Compound Concentration (ppm) sufficient for ≥90% inhibition of Cg
Method in brief: as §1

Diplodia maydis (Dm) = test: In vitro pathogen growth inhibition assay, Dm; type: cell-based; settings: Stenocarpella maydis, 48 h, ≥90% growth inhibition; 48 hours; vs 2% DMSO control; read-out: Compound Concentration (ppm) sufficient for ≥90% inhibition of Dm
Method in brief: as §1

[2] = test system: Fusarium moniliforme (Fm); test: In vitro pathogen growth inhibition assay, Fm; type: cell-based; settings: Fusarium verticillioides; ≥90% growth inhibition; 48 hours; vs 2% DMSO control; read-out: Compound Concentration (ppm) sufficient for ≥90% inhibition of Fm
Method in brief: as §1

[3] = test system: Fusarium virguliforme (Fv); test: In vitro pathogen growth inhibition assay, Fv; type: cell-based; settings: ≥90% growth inhibition, 48 hours, vs 2% DMSO control, read-out: Compound Concentration (ppm) sufficient for ≥90% inhibition of Fv
Method in brief: as §1

[4] = test system: Phytophthora capsici (Pc); test: In vitro pathogen growth inhibition assay, Pc; type: cell-based; settings: 48 h, ≥90% growth inhibition, 48 hours, vs 2% DMSO control, read-out: Compound Concentration (ppm) sufficient for ≥90% inhibition of Pc
Method in brief: as §1

Rhizoctonia solani (Rs) = test: In vitro pathogen growth inhibition assay, Rs (mycelial plugs); type: cell-based; settings: Rhizoctonia solani, 48 h, ≥90% growth inhibition; mycelial plugs; 48 hours; vs 2% DMSO control; read-out: Compound Concentration (ppm) sufficient for ≥90% inhibition of Rs
Method in brief: as §1

Septoria tritici (St) = test: In vitro pathogen growth inhibition assay, St; type: cell-based; settings: Zymoseptoria tritici, 48 h, ≥90% growth inhibition; 48 hours; vs 2% DMSO control; read-out: Compound Concentration (ppm) sufficient for ≥90% inhibition of St
Method in brief: as §1

[5] = test system: Blumeria graminis f. sp. hordei; test: Foliar protection test for barley powdery mildew control; type: in vivo; settings: foliar spray on Hordeum vulgare cv. Perry, inoculated 24 hours after treatment, evaluated 7 days later
Method in brief: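 Protective foliar test: compound atomized onto both leaf surfaces of 6-day-old Hordeum vulgare cv. Perry, followed after 24 h by spore-cloud inoculation from colonized untreated plants. Disease rated on leaves 7 days on, plants held at 20 to 22° C and 70% RH.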

Sphaerotheca fuliginea = test: Foliar protection for cucumber powdery mildew control; type: in vivo; settings: foliar spray on Cucumis sativus cv. Straight Eight, inoculated 24 hours after treatment, evaluated 7 days later
Method in brief: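 Protective foliar spray on 10-day-old Straight Eight cucumbers, with S. fuliginea spores dusted from infected stock plants 24 h after treatment. Disease developed at 23–27 °C, 60% RH and a 16 h photoperiod. Leaves were rated for mildew growth after 7 days; test rates 10 ppm or below.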

[6] = test system: Mycosphaerella graminicola (synthetic Septoria tritici); test: Foliar protection test for wheat septoria leaf blotch control; type: in vivo; settings: foliar spray on Triticum aestivum cv. WinterHawk, inoculated 1 hour after treatment, evaluated 16 days later
Fusarium graminearum = type: in vivo; settings: spray on flowering Triticum aestivum cv. Samson, inoculated 24 hours after treatment, evaluated 14 days later
Puccinia triticina = test: Foliar protection test for wheat leaf rust control; type: in vivo; settings: foliar application to wheat (Triticum aestivum cv. Winterhawk), evaluated 10 days later
Phakopsora pachyrhizi = test: Foliar protection test for Asian soybean rust control; type: in vivo; settings: foliar application to soybean (Glycine max AG4832), percent disease area evaluated 14 days later

Compound	IC90 (Botrtyis cinerea (Bc))	IC90 [1]	IC90 (Diplodia maydis (Dm))	IC90 [2]	IC90 [3]	IC90 [4]	IC90 (Rhizoctonia solani (Rs))	IC90 (Septoria tritici (St))	Barley Powdery Mildew Control at a compound concentration of 10 ppm or lower [5]	Cucumber Powdery Mildew Control at a compound concentration of 10 ppm or lower (Sphaerotheca fuliginea)	Septoria Leaf Blotch Control at a compound concentration of 25 ppm or lower [6]	Wheat Fusarium Head Blight Control at a compound concentration of 25 ppm or lower (Fusarium graminearum)	Wheat Leaf Rust Control at a compound concentration of 10 ppm or lower (Puccinia triticina)	Asian Soybean Rust Control at a compound concentration of 25 ppm or lower (Phakopsora pachyrhizi)
CCc1ccc(F)cc1[C@H](Cn1c(=O)n(C(C)(C)C(=O)NC(C)C)c(=O)c2c(C)c(-n3nccn3)sc21)OC[C@@H](C)C#N [Compound I-281, 2-(1-((R)-2-((S)-2-cyanopropoxy)-2-(2-ethyl-5-fluorophenyl)ethyl)-5-methyl-2,4-dioxo-6-(2H-1,2,3-triazol-2-yl)-1,4-dihydrothieno[2,3-d]pyrimidin-3 (2H)-yl)-N-isopropyl-2-methylpropanamide]	0.08 µg/mL (≈ 0.131 µM)	0.08 µg/mL (≈ 0.131 µM)	2 µg/mL (≈ 3.28 µM)	0.08 µg/mL (≈ 0.131 µM)	0.08 µg/mL (≈ 0.131 µM)	> 50 µg/mL	0.08 µg/mL (≈ 0.131 µM)	> 50 µg/mL	AA (≥85% control of barley powdery mildew)	AA (≥85% control of cucumber powdery mildew)	AA (≥85% control of wheat septoria leaf blotch)	C (from 25 to 49% control of wheat fusarium head blight)	AA (≥85% control of wheat leaf rust)	D (<25% control of Asian soybean rust)
CCc1ccc(F)cc1[C@H](Cn1c(=O)n(C(C)(C)C(=O)NC(C)C)c(=O)c2c(C)c(-n3nccn3)sc21)OC[C@H](C)C#N [Compound I-284, 2-(1-((R)-2-((R)-2-cyanopropoxy)-2-(2-ethyl-5-fluorophenyl)ethyl)-5-methyl-2,4-dioxo-6-(2H-1,2,3-triazol-2-yl)-1,4-dihydrothieno[2,3-d]pyrimidin-3 (2H)-yl)-N-isopropyl-2-methylpropanamide]	0.4 µg/mL (≈ 0.656 µM)	0.08 µg/mL (≈ 0.131 µM)	2 µg/mL (≈ 3.28 µM)	0.08 µg/mL (≈ 0.131 µM)	0.4 µg/mL (≈ 0.656 µM)	> 50 µg/mL	0.08 µg/mL (≈ 0.131 µM)	> 50 µg/mL	AA (≥85% control of barley powdery mildew)	AA (≥85% control of cucumber powdery mildew)	AA (≥85% control of wheat septoria leaf blotch)	C (from 25 to 49% control of wheat fusarium head blight)	AA (≥85% control of wheat leaf rust)	B (from 50 to 69% control of Asian soybean rust)
CCOC(=O)c1sc2c(c1C)c(=O)n(C(C)(C)C(=O)NC(C)C)c(=O)n2C[C@H](OCCS(C)(=O)=O)c1cc(F)ccc1OC [Compound I-285, (R)-ethyl-1-(2-(5-fluoro-2-methoxyphenyl)-2-(2-(methylsulfonyl)ethoxy)ethyl)-3-(1-(isopropylamino)-2-methyl-1-oxopropan-2-yl)-5-methyl-2,4-dioxo-1,2,3,4-tetrahydrothieno[2,3-d]pyrimidine-6-carboxylate]	2 µg/mL (≈ 3.05 µM)	0.4 µg/mL (≈ 0.61 µM)	≥ 2 µg/mL	0.4 µg/mL (≈ 0.61 µM)	2 µg/mL (≈ 3.05 µM)	50 µg/mL (≈ 76.2 µM)	0.4 µg/mL (≈ 0.61 µM)	≥ 50 µg/mL	A (from 70% to 84% control of barley powdery mildew)	AA (≥85% control of cucumber powdery mildew)	C (from 25 to 49% control of wheat septoria leaf blotch)	C (from 25 to 49% control of wheat fusarium head blight)	AA (≥85% control of wheat leaf rust)	C (from 25 to 49% control of Asian soybean rust)
COc1ccc(F)cc1[C@H](Cn1c(=O)n(C(C)(C)C(=O)NC(C)C)c(=O)c2c(C)c(-n3nccn3)sc21)OCCS(C)(=O)=O [Compound I-287, (R)-2-(1-(2-(5-fluoro-2-methoxyphenyl)-2-(2-(methylsulfonyl)ethoxy)ethyl)-5-methyl-2,4-dioxo-6-(2H-1,2,3-triazol-2-yl)-1,4-dihydrothieno[2,3-d]pyrimidin-3 (2H)-yl)-N-isopropyl-2-methylpropanamide]	2 µg/mL (≈ 3.07 µM)	0.4 µg/mL (≈ 0.615 µM)	0.4 µg/mL (≈ 0.615 µM)	0.4 µg/mL (≈ 0.615 µM)	2 µg/mL (≈ 3.07 µM)	10 µg/mL (≈ 15.4 µM)	0.08 µg/mL (≈ 0.123 µM)	≥ 50 µg/mL	AA (≥85% control of barley powdery mildew)	AA (≥85% control of cucumber powdery mildew)	AA (≥85% control of wheat septoria leaf blotch)	C (from 25 to 49% control of wheat fusarium head blight)	AA (≥85% control of wheat leaf rust)	AA (≥85% control of Asian soybean rust)
CCNC(=O)[C@@H](C)n1c(=O)c2c(C)c(-n3nccn3)sc2n(C[C@H](OCCC#N)c2cc(F)ccc2OC)c1=O [Compound I-289, (R)-2-(1-((R)-2-(2-cyanoethoxy)-2-(5-fluoro-2-methoxyphenyl)ethyl)-5-methyl-2,4-dioxo-6-(2H-1,2,3-triazol-2-yl)-1,4-dihydrothieno[2,3-d]pyrimidin-3 (2H)-yl)-N-ethylpropanamide]	2 µg/mL (≈ 3.51 µM)	0.08 µg/mL (≈ 0.14 µM)	0.4 µg/mL (≈ 0.702 µM)	0.08 µg/mL (≈ 0.14 µM)	0.4 µg/mL (≈ 0.702 µM)	≥ 10 µg/mL	0.08 µg/mL (≈ 0.14 µM)	> 50 µg/mL	AA (≥85% control of barley powdery mildew)	AA (≥85% control of cucumber powdery mildew)	AA (≥85% control of wheat septoria leaf blotch)	C (from 25 to 49% control of wheat fusarium head blight)	AA (≥85% control of wheat leaf rust)	AA (≥85% control of Asian soybean rust)
CCNC(=O)C(C)(C)n1c(=O)c2c(C)c(-n3nccn3)sc2n(C[C@H](O)c2cc(F)ccc2OC)c1=O [Compound I-292, (R)—N-ethyl-2-(1-(2-(5-fluoro-2-methoxyphenyl)-2-hydroxyethyl)-5-methyl-2,4-dioxo-6-(2H-1,2,3-triazol-2-yl)-1,4-dihydrothieno[2,3-d]pyrimidin-3 (2H)-yl)-2-methylpropanamide]	2 µg/mL (≈ 3.77 µM)	2 µg/mL (≈ 3.77 µM)	2 µg/mL (≈ 3.77 µM)	0.08 µg/mL (≈ 0.151 µM)	0.4 µg/mL (≈ 0.754 µM)	> 50 µg/mL	0.4 µg/mL (≈ 0.754 µM)	> 50 µg/mL	AA (≥85% control of barley powdery mildew)	AA (≥85% control of cucumber powdery mildew)	B (from 50 to 69% control of wheat septoria leaf blotch)	C (from 25 to 49% control of wheat fusarium head blight)	AA (≥85% control of wheat leaf rust)	B (from 50 to 69% control of Asian soybean rust)

Reference: patent publication US10941157B2, “Pesticidal compositions and uses thereof” (Gilead Apollo, LLC, priority 2015, dated 2021)
